Calls of active or inactive are those of the source. The rule behind the calls is not given here.
Tests used:
[1] = Cytotoxicity against HEK293 cells assessed as reduction in cell proliferation at 0.1 uM incubated for 72 hrs by SRB assay relative to control; assay type: toxicity, cell-based; conditions: human, read-out: Activity
[2] = Cytotoxicity against mouse Balb/3T3-L1 cells assessed as reduction in cell proliferation at 31.4 uM incubated for 72 hrs by SRB assay relative to control; assay type: toxicity, cell-based; conditions: read-out: Activity
[3] = Cytotoxicity against mouse Balb/3T3-L1 cells assessed as reduction in cell proliferation at 3.14 uM incubated for 72 hrs by SRB assay relative to control; assay type: toxicity, cell-based; parameters: scale not given: the % may be the effect or the level left; conditions: balb/3t3-l1, 72 h
[4] = Cytotoxicity against mouse Balb/3T3-L1 cells assessed as reduction in cell proliferation at 100 uM incubated for 72 hrs by SRB assay relative to control; assay type: toxicity, cell-based; conditions: read-out: Activity
HEK293 [5] = assay: Cytotoxicity against HEK293 cells assessed as reduction in cell proliferation at 0.31 uM incubated for 72 hrs by SRB assay relative to control; assay type: toxicity, cell-based; parameters: scale not given: the % may be the effect or the level left; conditions: human, hek293, 72 h
Sporosarcina pasteurii [6] = assay: Inhibition of Sporosarcina pasteurii CCM 2056 native urease using urea as substrate in presence of DTT measured for 1.5 hrs by colorimetric method
[7] = Cytotoxicity against HEK293 cells assessed as reduction in cell proliferation at 100 uM incubated for 72 hrs by SRB assay relative to control; assay type: toxicity, cell-based; conditions: human, read-out: Activity
[8] = Cytotoxicity against HEK293 cells assessed as reduction in cell proliferation at 31.4 uM incubated for 72 hrs by SRB assay relative to control; assay type: toxicity, cell-based; conditions: human, read-out: Activity
[9] = Inhibition of Sporosarcina pasteurii CCM 2056 native urease using urea as substrate measured for 1.5 hrs by colorimetric method
[10] = Inhibition of -ureolysis in live Helicobacter pylori Tx30a (ATCC 51932) in presence of urea by absorbance based analysis; assay type: functional
[11] = Cytotoxicity against mouse Balb/3T3-L1 cells assessed as reduction in cell proliferation at 0.31 uM incubated for 72 hrs by SRB assay relative to control; assay type: toxicity, cell-based; conditions: read-out: Activity
[12] = Cytotoxicity against mouse Balb/3T3-L1 cells assessed as reduction in cell proliferation at 1 uM incubated for 72 hrs by SRB assay relative to control; assay type: toxicity, cell-based; conditions: read-out: Activity
[13] = Cytotoxicity against HEK293 cells assessed as reduction in cell proliferation at 3.14 uM incubated for 72 hrs by SRB assay relative to control; assay type: toxicity, cell-based; conditions: human, read-out: Activity
[14] = Inhibition of Sporosarcina pasteurii CCM 2056 native urease using urea as substrate preincubated for 1 hr followed by substrate addition and measured for 1.5 hrs by colorimetric method
[15] = Cytotoxicity against mouse Balb/3T3-L1 cells assessed as reduction in cell proliferation at 10 uM incubated for 72 hrs by SRB assay relative to control; assay type: toxicity, cell-based; conditions: read-out: Activity
[16] = Cytotoxicity against HEK293 cells assessed as reduction in cell proliferation at 1 uM incubated for 72 hrs by SRB assay relative to control; assay type: toxicity, cell-based; conditions: human, read-out: Activity
[17] = Cytotoxicity against mouse Balb/3T3-L1 cells assessed as reduction in cell proliferation at 0.1 uM incubated for 72 hrs by SRB assay relative to control; assay type: toxicity, cell-based; parameters: scale not given: the % may be the effect or the level left; conditions: balb/3t3-l1, 72 h
HEK293 [18] = assay: Cytotoxicity against HEK293 cells assessed as reduction in cell proliferation at 10 uM incubated for 72 hrs by SRB assay relative to control; assay type: toxicity, cell-based; parameters: scale not given: the % may be the effect or the level left; conditions: human, hek293, 72 h
[19] = Stability of compound in methanol assessed as rate of hydrolysis measured after 3 days by NMR analysis; assay type: physicochemical; conditions: time 3 day, read-out: Activity
Sporosarcina pasteurii [20] = assay: Inhibition of Sporosarcina pasteurii CCM 2056 native urease using urea as substrate by colorimetric method; conditions: TDE = time-dependent effect
Sporosarcina pasteurii [21] = assay: Competitive inhibition of Sporosarcina pasteurii CCM 2056 native urease using urea as substrate in presence of DTT measured for 1.5 hrs by colorimetric method

Row | Structure (SMILES) | inhibition at 72 h, 0.1 µM [1] [%] | inhibition at 72 h, 31.4 µM [2] [%] | Activity [3] [%] | inhibition at 72 h, 100 µM [4] [%] | Activity (HEK293 [5]) [%] | inhibition (Sporosarcina pasteurii [6]) | inhibition at 72 h, 100 µM [7] [%] | inhibition at 72 h, 31.4 µM [8] [%] | Ki [9] [µM] | IC50 [10] [µM] | inhibition at 72 h, 0.31 µM [11] [%] | inhibition at 72 h, 1 µM [12] [%] | inhibition at 72 h, 3.14 µM [13] [%] | Ki [14] [µM] | inhibition at 72 h, 10 µM [15] [%] | inhibition at 72 h, 1 µM [16] [%] | Activity [17] [%] | Activity (HEK293 [18]) [%] | further results
1 | O=P(O)(O)CCc1ccc(O)c(O)c1 | 2.2 | 18.3 | 10.6 | 17.8 | -3.4 | Active | 15.7 | 15.6 | 17.7 | 26.6 | 5.9 | 15 | 0.1 | 9.1 | 12.7 | -0.9 | 0.4 | 8.4 | 
2 | COC(=O)CCP(=O)(O)CC(C(=O)OC)c1ccc(O)c(O)c1 (stereo not given) |  |  |  |  |  | Active |  |  | 295 | 412 |  |  |  | 228 |  |  |  |  | degraded at 72 h [19]: < 5%
3 | O=C(O)C(CP(=O)(O)CC(C(=O)O)c1ccc(O)c(O)c1)c1ccc(O)c(O)c1 (mixture of isomers) |  |  |  |  |  | inactive |  |  | 16 | 13.1 |  |  |  | 6.8 |  |  |  |  | 
4 | COC(=O)C(CP(=O)(O)CC(C(=O)OC)c1ccc(O)c(O)c1)c1ccc(O)c(O)c1 (mixture of isomers) |  |  |  |  |  | inactive |  |  | 223 | 106 |  |  |  | 7.55 |  |  |  |  | 
5 | O=C(O)CCP(=O)(O)CC(C(=O)O)c1ccc(O)c(O)c1 (racemic) | 13.5 | 25.8 | 17.5 | 33.2 | 8.5 | inactive | 7.7 | 10.4 | 298 | 9.28 | 4.9 | 13.4 | 10.1 | 6.13 | 17.4 | 8.1 | 8 | 16.3 | 
6 | O=C(O)C(C[PH](=O)O)c1ccc(O)c(O)c1 (racemic) |  |  |  |  |  | inactive |  |  | 79.3 | 10.5 |  |  |  | 58.8 |  |  |  |  | inhibition (Sporosarcina pasteurii [20]): Tde
7 | O=C(O)C(CP(=O)(O)O)c1cc(O)c(O)cc1Br (racemic) |  |  |  |  |  | Active |  |  | 41.9 | 50.3 |  |  |  | 34.8 |  |  |  |  | inhibition (Sporosarcina pasteurii [21]): Active
8 | O=C(O)C(CP(=O)(O)O)c1ccc(O)c(O)c1 (racemic) | 1.4 | 24.9 | 20.1 | 34.9 | -1.6 | inactive | 7.8 | -3 | 400 | 0.75 | 15.6 | 18.6 | -0.2 | 2.36 | 22.1 | -0.8 | 6.7 | -3 | inhibition (Sporosarcina pasteurii [20]): Tde
9 | COC(=O)C(CP(=O)(O)O)c1ccc(O)c(O)c1 (racemic) |  |  |  |  |  | Active |  |  | 107 | 31.4 |  |  |  | 78 |  |  |  |  | degraded at 72 h [19]: < 5%
10 | CC(=O)NO [ACETOHYDROXAMIC ACID] |  |  |  |  |  |  |  |  |  | 156 |  |  |  | 3.3 |  |  |  |  | 

From ChEMBL document CHEMBL5335783, “Inhibitory activity of catecholic phosphonic and phosphinic acids against Helicobacter pylori ureolysis” (Eur J Med Chem, 2023)
